Data taken from patent US20220409576A1, “NANO-PARTICULATE COMPOSITIONS FOR STIMULATING HOST INNATE IMMUNE RESPONSES FOR THERAPEUTIC APPLICATIONS” (priority 2019, published 2022).

Key:
intracellular S. aureus = assay: Bactericidal activity of RAW 264.7 macrophages against intracellular S. aureus (antibiotic protection assay, viable colony number); format: cell-based, Staphylococcus aureus; conditions: cells with IONPs 3 mg/mL + VC 500 μM plus chelator BIP 500 μM or scavenger THI 200 mM, FIG. 3C
Description: A. The quantification of ROS generation in the RAW 264.7 cells treated with varying concentration of IONPs (0-3 mg/mL). B. The colony number of viable bacteria (S. aureus) in the lysed RAW 264.7 macrophages treated with varying concentration of IONPs (0-3 mg/mL) following the exposure of live S. aureus.
(A-B) The quantification of ROS generation (A) and viable colony number of S. aureus (B) in the RAW 264.7 cells treated with VC (500 μM) alone, IONP (3 mg/mL) alone, or IONP (3 mg/mL)+VC (500 μM). (C-D) The quantification of ROS generation (C) and viable colony number of S. aureus (D) in the RAW 264.7 cells treated with IONP (3 mg/mL) alone, or IONP (3 mg/mL)+H2O2 (100 μM). E. Representative images of surviving S. aureus colony on agar plates from lysed RAW264.7 macrophages treated with H2O2 (100 μM), IONP (3 mg/mL), or IONP+H2O2. N=3-5 per group, *p<0.05
A. The intracellular level of ferrous iron (Fe2+) in RAW 264.7 cells treated with IONPs (3 mg/mL) alone, IONPs with VC (500 μM), or IONPs with VC and BIP (iron chelator, 500 μM). […] The bactericidal activity of RAW 264.7 cells treated with IONPs (3 mg/mL) with VC (500 μM), IONPs with VC and BIP (500 μM), or IONPs with VC and TIH (200 mM), assessed by antibiotic protection assay. *p<0.05, N=3-5 per group. […]

RAW 264.7 cells = assay: Intracellular hydroxyl radical generation in RAW 264.7 cells; format: cell-based; conditions: RAW 264.7 cells with IONPs 3 mg/mL + VC 500 μM, BIP 500 μM, 24 h, FIG. 3B
Description: A. The intracellular level of ferrous iron (Fe2+) in RAW 264.7 cells treated with IONPs (3 mg/mL) alone, IONPs with VC (500 μM), or IONPs with VC and BIP (iron chelator, 500 μM). B. The intracellular level of hydroxyl radical concentration in RAW 264.7 cells treated with IONPs (3 mg/mL) alone, IONPs with VC (500 μM), or in combination with BIP (500 μM) for 24 h. C. The bactericidal activity of RAW 264.7 cells treated with IONPs (3 mg/mL) with VC (500 μM), IONPs with VC and BIP (500 μM), or IONPs with VC and TIH (200 mM), assessed by antibiotic protection assay. *p<0.05, N=3-5 per group.
To further determine if the VC-mediated ROS generation and bactericidal activity were associated with a Fenton reaction due to increased release of Fe^2+, the levels of Fe^2+ were compared between RAW 264.7 cells treated with IONPs alone and IONPs with VC. […] Among various forms of ROS, hydroxyl radical ([…]) is highly cytotoxic by causing oxidative damage to DNA and cell membrane. In the Fenton reaction-mediated generation of ROS, the oxidation of Fe^2+ by hydrogen peroxide (H2O2) produces highly reactive hydroxyl radical.

**Q.** For c1ccc(-c2ccccn2)nc1 [BIP], which “IONPs/VC-induced bactericidal activity of RAW 264.7 cells” value (intracellular S. aureus) is on record?
**A.** decrease in bactericidal activity

**Q.** What about the “IONPs and VC-induced generation of hydroxyl radicals” value (RAW 264.7 cells) of the same molecule?
**A.** significantly decreased
